From patent US20030180396A1, “Method of effecting phosphorylation in eucaryotic cells using thiamine triphosphate” (INSTITUT PASTEUR, priority 1999, published 2003) come the findings set out here.

Entries after “also recorded” stand apart in the source; their conditions may differ. Like-named read-outs stand apart in the source and are kept apart here.

The test system of series [1] is TTP-dependent kinase(s) (TTP-kinase, TTP-43K-kinase). Description: TTP-dependent phosphorylation of 43K rapsyn by endogenous kinase(s) in nAChR-rich postsynaptic membranes. The series is classed as biochemical, Torpedo marmorata. To be noted: for IC50: FIG. 3A, preincubation with cold triphosphate, read-out: IC50, inhibition of TTP-dependent phosphorylation of 43K rapsyn; for Kd: read-out: KD (apparent dissociation constant) of 43K rapsyn phosphorylation. On the procedure: (§1) nAChR-rich postsynaptic membranes (nAChR-membranes) were prepared from electric organs excised from freshly killed Torpedo marmorata (T.m.) (Biologie Marine, Arcachon) (3, 16).
(§2) [γ-^32P]-TTP (^32P-TTP) was synthesized (27). nAChR-membranes were phosphorylated with (7-8000 Ci/mol) ^32P-TTP or ^32P-ATP in 50 mM Tris-HCl pH 7.5, 5-15 mM MgCl2, 0.08% CHAPS, inhibitors of proteases at 4°-20° C. for 60-90 minutes. […] Coomassie blue staining was performed when necessary. Where specified, nAChR-membranes were treated with 5-20 mM diethylpyrocarbonate (DEPC.) (28) in 50 mM Na phosphate buffer pH 6.0 and 7.4 (20 min, 16° C.), prior to incubation with ^32P-TTP.
A purified extract containing the kinase responsible for the TTP dependent phosphorylation of histidine residues on rapsyn, is preincubated with increasing concentration of products inhibiting the enzymatic activity of said kinase (FIG. 3A).

In series [2] the test system is endogenous protein kinase A (PKA). The series can be described thus: ATP-dependent phosphorylation of 43K rapsyn in nAChR-rich postsynaptic membranes. In kind it is biochemical, Torpedo marmorata. As for the experimental part: as §1, §2
The target in series [3] is T1, Nucleoside diphosphate kinase (NDPK) (Dictyostelium discoideum, UniProt P22887).
T1 sequence (P22887 1-155): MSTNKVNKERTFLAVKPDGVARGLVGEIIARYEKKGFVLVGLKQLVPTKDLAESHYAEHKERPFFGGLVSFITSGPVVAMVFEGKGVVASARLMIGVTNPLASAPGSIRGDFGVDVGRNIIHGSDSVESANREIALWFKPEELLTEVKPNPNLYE
The series can be described thus: Phosphorylation of NDPK with 32P-ATP or 32P-TTP as phosphodonor. The series is classed as biochemical. The conditions noted are these: data not shown. As for the experimental part:
NDPK is a highly conserved enzyme which plays a key role in growth and metastasis control (47). As the enzyme autophosphorylates histidine and presents a broad specificity, phosphorylation was assayed with TTP.

The subject of a further series is mouse brain membranes. To be noted: FIG. 8.
Series [4] can be described thus: Chemical stability of the phosphate links of phosphorylated 43K rapsyn (TCA / KOH treatment). The conditions noted are these: for P-aa stability (base): PVDF blot + base; for P-aa stability (acid): SDS-PAGE gel + acid. In kind it is physicochemical, Torpedo marmorata. On the procedure:
For acid treatment, SDS-PAGE gels containing ^32P-ATP- or ^32P-TTP-treated membranes were cut and incubated with Tris buffer or 16% TCA at 90° C. (29, 30), washed, and analyzed. Equivalent amounts of 43K rapsyn were ensured by Coomassie blue staining. For base treatment, ^32P-labeled membranes were resolved by SDS-PAGE, electroblotted on polyvinylidene difluoride membrane (PVDF). Blots were dried at 55° C. to minimize protein loss, wet in methanol, washed with H2O, cut and incubated in water or 1N KOH at 46° C. and analyzed.

With `Nc1ncnc2c1nc(Sc1ccc(Cl)cc1)n2[C@@H]1O[C@@H]2COP(=O)([O-])O[C@H]2[C@H]1O.[Na+]` [8-CPT-cAMP, Adenosine 3′-5′-cyclic monophosphate, 8-(4-Chlorophenylthio)-sodium salt], the “effect on TTP-dependent phosphorylation of 43K rapsyn / TTP-kinase activity (in words)” value in series [1] is listed as “did not drastically alter”.

In the case of `Nc1ncnc2c1ncn2[C@@H]1O[C@H](COP(=O)(O)OP(=O)(O)OP(=O)(O)O)[C@@H](O)[C@H]1O` [ATP, adenosine triphosphate], the “effect on 32P-ATP-dependent 43K rapsyn phosphorylation (in words)” value in series [2] was “specifically inhibited”. Further, in series [1], the “effect on TTP-dependent phosphorylation of 43K rapsyn / TTP-kinase activity (in words)” value is “specifically inhibited” and the 50% inhibitory concentration (IC50) (as a rule, the concentration that gives 50% inhibition) was around 500 µM. For `Nc1ccn([C@@H]2O[C@H](COP(=O)(O)OP(=O)(O)OP(=O)(O)O)[C@@H](O)[C@H]2O)c(=O)n1` [CTP], in series [1], the “effect on TTP-dependent phosphorylation of 43K rapsyn / TTP-kinase activity (in words)” value is “inhibits poorly”. As to `CCOC(=O)OC(=O)OCC` [DEPC, diethylpyrocarbonate], the “43K rapsyn phosphorylation, % 32P” value in series [1] (membranes pretreated with 5-20 mM DEPC, versus 100±19% in mock membranes) is on record as 20±2%. For the molecule `O[C@@H](CS)[C@@H](O)CS` [DTT], the “effect on TTP-dependent phosphorylation of 43K rapsyn / TTP-kinase activity (in words)” value in series [1] is “partially inhibited”. The “% inhibition of TTP-kinase activity” value in series [1] (10 mM) is reported as 30-40%.

For the molecule `CN(C)CCCn1cc(C2=C(c3c[nH]c4ccccc34)C(=O)NC2=O)c2ccccc21` [GFX, bisindolylmaleimide I], in series [1], the “effect on TTP-dependent phosphorylation of 43K rapsyn / TTP-kinase activity (in words)” value is on record as “did not drastically alter”. Regarding `Nc1nc2c(ncn2[C@@H]2O[C@H](COP(=O)(O)OP(=O)(O)OP(=O)(O)O)[C@@H](O)[C@H]2O)c(=O)[nH]1` [GTP], in series [1], the IC50 is around 1000 µM. With `CC1CNCCN1S(=O)(=O)c1cccc2cnccc12` (centres unmarked) [H7], the “effect on TTP-dependent phosphorylation of 43K rapsyn / TTP-kinase activity (in words)” value in series [1] is reported as “did not drastically alter”. In the case of `O=S(=O)(NCCNC/C=C/c1ccc(Br)cc1)c1cccc2cnccc12` [H89], in series [1], the “effect on TTP-dependent phosphorylation of 43K rapsyn / TTP-kinase activity (in words)” value is given as “did not drastically alter”. Still for that read-out and setting: as for `CN([C@@H](Cc1ccc(OS(=O)(=O)c2cccc3cnccc23)cc1)C(=O)N1CCN(c2ccccc2)CC1)S(=O)(=O)c1cccc2cnccc12` [KN62], the entry is “did not drastically alter”; as for `CCCCCCOC(=O)[C@]1(O)C[C@@H]2O[C@@]1(C)n1c3ccccc3c3c4c(c5c6ccccc6n2c5c31)C(=O)NC4` [KT5720], “did not drastically alter”. In the case of `O=S(=O)(c1cccc2c(I)cccc12)N1CCCNCC1` [ML7], the “effect on TTP-dependent phosphorylation of 43K rapsyn / TTP-kinase activity (in words)” value in series [1] is reported as “did not drastically alter”. Still for that read-out and setting: as for `[Mg+2]` [Mg^2+], the entry is “enhanced”. On the same count and under the same terms, as for `CCCCCCCCCCCCCC(=O)O[C@@H]1[C@@H](C)[C@@]2(O)[C@@H](C=C(CO)C[C@]3(O)C(=O)C(C)=C[C@@H]23)[C@@H]2C(C)(C)[C@]12OC(C)=O` [TPA, phorbol-12-myristate-13-acetate], the entry is “did not drastically alter”.

Turning to `[Zn+2]` [Zn^2+], in series [1], the “effect on TTP-dependent phosphorylation of 43K rapsyn / TTP-kinase activity (in words)” value is given as “inhibited; also recorded: prevented”. The “% inhibition of TTP-dependent phosphorylation of 43K rapsyn” value in series [1] (0.5-3 mM Zn2+, 8 μM 32P-TTP, Mg2+ independent) is around 70%.

In the case of `Nc1ncnc2c1ncn2[C@@H]1O[C@H](COP(=O)(O)OP(=O)(O)O[32P](=O)(O)O)[C@@H](O)[C@H]1O` [^32P-ATP, [γ-^32P]-ATP, reference compound], in series [2] (not yet saturated), the “concentration saturating 43K rapsyn phosphorylation” value was above 200 µM. In addition, the “phosphorylation of NDPK by the phosphodonor” value in series [3] is “strongly phosphorylated”. As for `Cc1ncc(C[n+]2csc(CCOP(=O)(O)OP(=O)(O)O[32P](=O)([O-])O)c2C)c(N)n1` [^32P-TTP, [γ-^32P]-TTP], the “phosphorylation of NDPK by the phosphodonor” value in series [3] was “not”. Further, in series [1] (FIG. 3C), the “concentration saturating 43K rapsyn phosphorylation” value lay within 25 to 50 µM.

As for `COc1ccc(C[C@H]2NC[C@H](O)[C@H]2OC(C)=O)cc1` [anisomycin], the “effect on TTP-dependent phosphorylation of 43K rapsyn / TTP-kinase activity (in words)” value in series [1] was “did not drastically alter”. Still for that read-out and setting: as for `Nc1nc2c(ncn2[C@@H]2O[C@@H]3COP(=O)(O)O[C@H]3[C@H]2O)c(=O)[nH]1` [cGMP], the entry is “did not drastically alter”; as for `Clc1ccc(C(c2ccc(Cl)cc2)n2cc[n+](CC(OCc3ccc(Cl)cc3Cl)c3ccc(Cl)cc3Cl)c2)cc1` (centres unmarked) [calmidazolium], “did not drastically alter”. On the same count and under the same terms, as for `O=c1c(-c2ccc(O)cc2)coc2cc(O)cc(O)c12` [genisterin, genistein], the entry is “did not drastically alter”; as for `CN[C@@H]1C[C@H]2O[C@@](C)([C@@H]1OC)n1c3ccccc3c3c4c(c5c6ccccc6n2c5c31)C(=O)NC4` [staurosporine], “did not drastically alter”. Still for that read-out and setting: then TNF-α, with “did not drastically alter”; and calphostin, with “did not drastically alter”. thiamine triphosphate [TTP]: the “effect on 32P-ATP-dependent 43K rapsyn phosphorylation (in words)” value in series [2] is on record as “specifically inhibited”. Besides, in series [1], the “effect on TTP-dependent phosphorylation of 43K rapsyn / TTP-kinase activity (in words)” value is “specifically inhibited” and the IC50 is around 40 µM. The Kd in series [1] (FIG. 3C, dose dependent and saturable) fell in the range of 5 to 10 µM. In addition, the Kd in series [1] (one membrane preparation) is around 25 µM. For the same molecule, in the series with mouse brain membranes, the “proteins phosphorylated in mouse brain membranes” value was “phosphorylated very few”.

B1: 43K-rapsyn/ATP: 43K rapsyn phosphorylated with ^32P-ATP (protein, UniProt Q13702 2-412, looked up)
43 kDa receptor-associated …: GQDQTKQQIEKGLQLYQSNQTEKALQVWTKVLEKSSDLMGRFRVLGCLVTAHSEMGRYKEMLKFAVVQIDTARELEDADFLLESYLNLARSNEKLCEFHKTISYCKTCLGLPGTRAGAQLGGQVSLSMGNAFLGLSVFQKALESFEKALRYAHNNDDAMLECRVCCSLGSFYAQVKDYEKALFFPCKAAELVNNYGKGWSLKYRAMSQYHMAVAYRLLGRLGSAMECCEESMKIALQHGDRPLQALCLLCFADIHRSRGDLETAFPRYDSAMSIMTEIGNRLGQVQALLGVAKCWVARKALDKALDAIERAQDLAEEVGNKLSQLKLHCLSESIYRSKGLQRELRAHVVRFHECVEETELYCGLCGESIGEKNSRLQALPCSHIFHLRCLQNNGTRSCPNCRRSSMKPGFV
modifications: 32P-phosphorylated (ATP)
notes: 43K rapsyn phosphorylated with ^32P-ATP
In the case of B1, the “P-aa stability (base)” value in series [4] is recorded as “base-labile”; in series [4] (listed as ATP-^32P-43K rapsyn) it was “alkaline labile”. Besides, the “% 32P remaining” value is given as 41 ± 1% in series [4] (PVDF blot, 1 N KOH 46° C. 40 min, relative to control); 18 ± 2% in series [4] (PVDF blot, 1 N KOH 46° C. 120 min, relative to control); 18±2% in series [4] (PVDF blot, 1 N KOH 46° C. 120 min, relative to control, listed as ATP-^32P-43K rapsyn); 79 ± 5% in series [4] (SDS-PAGE gel, 16% TCA, 90° C. 5 min, relative to control); 79±5% in series [4] (SDS-PAGE gel, 16% TCA, 90° C. 5 min, relative to control, listed as ATP-^32P-43K rapsyn); 49 ± 9% in series [4] (SDS-PAGE gel, 16% TCA, 90° C. 10 min, relative to control). For the same molecule, the “% 32P remaining” value in series [4] (SDS-PAGE gel, 16% TCA, 90° C. 10 min, relative to control, listed as ATP-^32P-43K rapsyn) turned out to be 49±9%. Also, the “P-aa stability (acid)” value in series [4] was “acid-stable”; in series [4] (listed as ATP-^32P-43K rapsyn) it was “acid stable”. For the same molecule, the Paa/pH-stability result in series [4] (putative Paa listed in both acid- and base-stability analysis (ref. 45)) was “P-Ser and/or P-Thr”.

B2: 43K-rapsyn/TTP: 43K rapsyn phosphorylated with ^32P-TTP (protein, UniProt Q13702 2-412, looked up)
43 kDa receptor-associated …: B1 43 kDa receptor-associated …
modifications: 32P-phosphorylated (TTP)
notes: 43K rapsyn phosphorylated with ^32P-TTP
B2: the Paa/pH-stability entry in series [4] is recorded as “P-His and/or P-Lys”. Further, in series [4] (40 min), the “% 32P remaining” value is given as 96 ± 3%.
